Source: article PMC6973020, “Quinoline‐Conjugated Ruthenacarboranes: Toward Hybrid Drugs with a Dual Mode of Action” (Chemmedchem, 2019)

What was measured:
LN229 human glioblastoma [1] = assay: Crystal violet (CV) cell viability assay, LN229; type: cell-based; conditions: read-out: IC50 LN229
Text: (§1) Thus, care must be taken when comparing their biological activities with those of our previous studies, even with the same cell line, because the covalent vs. non‐covalent combination of drugs might imply different mechanisms of action in the cell.44 Here, we studied the in vitro activity of ruthenacarborane 3, i. e. free acid, and its 8‐hydroxyquinolyl (4) and 4‐{(7‐chloroquinolin‐4‐yl)oxy}butanol‐1‐yl (5) esters, against a panel of cancer cell lines (B16 mouse melanoma, A375 human skin melanoma, MCF‐7 human breast adenocarcinoma, LN229 human glioblastoma, U251 human glioma). Human fibroblast cell line MRC‐5, murine microglial cell line BV‐2 as well as peritoneal exudate cells (Mph), were chosen as models for non‐malignant cells. […] On the other side, we wanted to assess the reproducibility of the viability data, under either controlled (with BSA) or uncontrolled (without BSA) conditions, in two sets of independent assays. […] Cells were exposed to 3–5 for 72 h, after which cell viability was determined via 3‐(4,5‐dimethylthiazol‐2‐yl)‐2,5‐diphenyltetrazolium bromide (MTT) and crystal violet (CV) assays, in parallel (Table 2). Cisplatin was also tested as reference.
(§2) Preparation of drug solutions. […] Stock solution of cisplatin was prepared in DMF (10 mM) immediately before use. A stock solution of BSA in PBS was prepared at 1.28 mM concentration, and stored at 4 °C in the dark. […] Alternatively, 3 or 4 (DMSO stock solution) were added to the BSA solution in PBS, always with a 10 : 1 molar ratio of BSA to ruthenacarborane. The BSA−ruthenacarborane solutions were incubated 0.5–1 h at room temperature, then diluted with cell culture medium to the desired final concentrations. Final concentrations of 3 and 4 were the same as for the BSA‐free formulation. Final DMSO was 0.02–0.5 vol %.
(§3) Colorimetric assays for cellular viability. […] For counting the number of attached (viable) cells, cells were fixed with 4 % (w/v) paraformaldehyde for 10 min at room temperature, and subsequently stained for 15 min with […] crystal violet (CV) solution. Cells were then washed with tap water, dried in air, and the CV dye was dissolved in 33 % (w/v) acetic acid solution. For the detection of mitochondrial respiration, cells were cultivated in MTT staining solution (0.5 mg mL^−1) for approximately 1 h. The dye was then discarded, and the formed formazan (purple) was dissolved in DMSO. The absorbance was measured with an automated microplate reader at λmax 540 nm, with the reference λmax 670 nm. Untreated cells or cells treated only with BSA (control) were also measured, as reference for BSA‐free and BSA‐containing drug formulations, respectively. For determination of the role of autophagy specific inhibitors, CQ or 3‐MA, were applied at a concentration of 20 μM and 0.5 mM, respectively, and the cells were stained with CV dye. Cell viability is expressed as percentage (%) relative to control (untreated cultures).58 Experiments were run in three independent replicates. […] Non‐linear regression analyses of the obtained results was done using GraphPad Prism software to calculate IC50 values.
(§4) mouse microglial cell line BV‐2 was a kind gift from Dr. Irena Lavrnja, Institute for Biological Research
(§5) “Siniša Stanković” (University of Belgrade).

U251 human glioma [2] = assay: Crystal violet (CV) cell viability assay, U251; type: cell-based; conditions: read-out: IC50 U251
Text: as §1, §2, §3, §4, §5

[3] = tested on: MCF‐7 human breast adenocarcinoma; assay: Crystal violet (CV) cell viability assay, MCF‐7; type: cell-based; conditions: 72 h
Text: as §1, §2
(§6) Colorimetric assays for cellular viability. […] For counting the number of attached (viable) cells, cells were fixed with 4 % (w/v) paraformaldehyde for 10 min at room temperature, and subsequently stained for 15 min with […] crystal violet (CV) solution. Cells were then washed with tap water, dried in air, and the CV dye was dissolved in 33 % (w/v) acetic acid solution. For the detection of mitochondrial respiration, cells were cultivated in MTT staining solution (0.5 mg mL^−1) for approximately 1 h. The dye was then discarded, and the formed formazan (purple) was dissolved in DMSO. The absorbance was measured with an automated microplate reader at λmax 540 nm, with the reference λmax 670 nm. Untreated cells or cells treated only with BSA (control) were also measured, as reference for BSA‐free and BSA‐containing drug formulations, respectively. […] Cell viability is expressed as percentage (%) relative to control (untreated cultures).58 Experiments were run in three independent replicates. […]

LN229 human glioblastoma [4] = assay: MTT cell viability assay, LN229; type: cell-based; conditions: 72 h
Text: as §1, §2, §6

[5] = tested on: MCF‐7 human breast adenocarcinoma; assay: MTT cell viability assay, MCF‐7; type: cell-based; conditions: 72 h
Text: as §1, §2, §6

U251 human glioma [6] = assay: MTT cell viability assay, U251; type: cell-based; conditions: 72 h
Text: as §1, §2, §6

B16 mouse melanoma [7] = assay: MTT cell viability assay, B16; type: cell-based; conditions: 72 h
Text: as §1, §2, §6

A375 human skin melanoma [8] = assay: MTT cell viability assay, A375; type: cell-based; conditions: 72 h
Text: as §1, §2, §6

B16 mouse melanoma [9] = assay: Crystal violet (CV) cell viability assay, B16; type: cell-based; conditions: 72 h
Text: as §1, §2, §6

A375 human skin melanoma [10] = assay: Crystal violet (CV) cell viability assay, A375; type: cell-based; conditions: 72 h
Text: as §1, §2, §6

[11] = tested on: Human fibroblast cell line MRC‐5; assay: MTT cell viability assay, MRC‐5; type: cell-based; conditions: 72 h
Text: as §1
(§7) Preparation of drug solutions. […] Stock solution of cisplatin was prepared in DMF (10 mM) immediately before use. A stock solution of BSA in PBS was prepared at 1.28 mM concentration, and stored at 4 °C in the dark. […] Alternatively, 3 or 4 (DMSO stock solution) were added to the BSA solution in PBS, always with a 10 : 1 molar ratio of BSA to ruthenacarborane. […]
(§8) Colorimetric assays for cellular viability. […] The absorbance was measured with an automated microplate reader at λmax 540 nm, with the reference λmax 670 nm. Untreated cells or cells treated only with BSA (control) were also measured, as reference for BSA‐free and BSA‐containing drug formulations, respectively. […] Cell viability is expressed as percentage (%) relative to control (untreated cultures).58 Experiments were run in three independent replicates. […]

[12] = tested on: U251 and LN229 cell lines; assay: Cell viability assays (MTT, CV), summary for glioma and glioblastoma lines; type: cell-based, human; conditions: concentration range tested up to 100 μM, 72 h
Text: as §1, §7, §8

[13] = tested on: primary non‐malignant mouse macrophages (Mph); assay: Crystal violet (CV) cell viability assay, peritoneal macrophages (Mph); type: cell-based; conditions: 72 h
Text: as §1, §7, §8

[14] = tested on: murine microglial cell line BV‐2; assay: MTT cell viability assay, BV‐2; type: cell-based, mouse; conditions: 72 h
Text: as §1, §7, §8

[15] = tested on: Human fibroblast cell line MRC‐5; assay: Crystal violet (CV) cell viability assay, MRC‐5; type: cell-based; conditions: 72 h
Text: as §1, §7, §8

[16] = tested on: murine microglial cell line BV‐2; assay: Crystal violet (CV) cell viability assay, BV‐2; type: cell-based, mouse; conditions: 72 h
Text: as §1, §7, §8

Compound	IC50 (LN229 human glioblastoma [1]; Homo sapiens, LN-229, 72 h)	IC50 (U251 human glioma [2]; Homo sapiens, U-251, 72 h)	IC50 (LN229 human glioblastoma [1]; CV assay, 72 h)	IC50 [3]	IC50 (LN229 human glioblastoma [4])	IC50 [5]	IC50 (U251 human glioma [6])	IC50 (U251 human glioma [2]; CV assay, 72 h)	IC50 (B16 mouse melanoma [7])	IC50 (A375 human skin melanoma [8])	IC50 (B16 mouse melanoma [9])	IC50 (A375 human skin melanoma [10])	IC50 [11]	activity against LN229 and U251 (in words) [12]	IC50 [13]	IC50 [14]	IC50 [15]	IC50 [16]
CCN(CC)CCCC(C)Nc1ccnc2cc(Cl)ccc12 (stereo not shown) [CQ, chloroquine, reference compound]	30 to 50 µM	30 to 50 µM																
N.N.[Cl][Pt][Cl] [Cisplatin, reference compound]			4.1 ± 0.6 µM	3.5 ± 0.2 µM	4.1 ± 0.4 µM	3 ± 0.5 µM	0.4 ± 0.1 µM	0.8 ± 0.3 µM	6 ± 0.4 µM	3.3 ± 0.4 µM	10.9 ± 1.2 µM	3.7 ± 0.1 µM						
closo ‐[3‐(η^6‐p‐Cymene)‐1‐[(7‐chloroquinolin‐4‐yl)oxy]butyl acetate)‐3,1,2‐RuC2B9H10] [Compound 5]			82.5 ± 7.6 µM	34.1 ± 0.5 µM	86.7 ± 3 µM	15.5 ± 1.5 µM	> 100 µM	> 100 µM	9.5 ± 1.8 µM	43.4 ± 0.3 µM	33.7 ± 2.9 µM	> 100 µM	> 100 µM	inactive	> 100 µM	12.3 ± 0.1 µM	> 100 µM	> 100 µM
